Experimental data: PubChem BioAssay (NCI)
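Assay format: 96-well plates, 48-hour exposure. Abbreviation: GI50, concentration required for 50% inhibition of growth. TGI denotes the concentration required for complete inhibition of growth.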

Tests used:
Assay in all cases: DTP human tumour cell line panel, 48 h
NCI-H460 lung = system: NCI-H460 lung
HCT-15 colon = system: HCT-15 colon
ACHN renal = system: ACHN renal
MDA-MB-435 = system: MDA-MB-435
SF-268 CNS = system: SF-268 CNS
M14 melanoma = system: M14 melanoma
OVCAR-5 ovarian = system: OVCAR-5 ovarian
U251 CNS = system: U251 CNS
SK-MEL-5 melanoma = system: SK-MEL-5 melanoma
T-47D breast = system: T-47D breast
UACC-62 melanoma = system: UACC-62 melanoma
A549 NSCLC = system: A549 NSCLC
PC-3 prostate = system: PC-3 prostate
UO-31 renal = system: UO-31 renal
KM12 colon = system: KM12 colon
LOX IMVI melanoma = system: LOX IMVI melanoma
SK-MEL-2 melanoma = system: SK-MEL-2 melanoma
SNB-75 CNS = system: SNB-75 CNS
OVCAR-8 ovarian = system: OVCAR-8 ovarian
HOP-92 NSCLC = system: HOP-92 NSCLC
UACC-257 melanoma = system: UACC-257 melanoma
HCT-116 colon = system: HCT-116 colon
HL-60(TB) leukemia = system: HL-60(TB) leukemia
SF-295 CNS = system: SF-295 CNS
OVCAR-4 ovarian = system: OVCAR-4 ovarian
MALME-3M melanoma = system: MALME-3M melanoma
SK-MEL-28 melanoma = system: SK-MEL-28 melanoma
BT-549 breast = system: BT-549 breast
IGROV1 ovarian = system: IGROV1 ovarian
SN12C renal = system: SN12C renal
K-562 leukemia = system: K-562 leukemia
COLO 205 colon = system: COLO 205 colon
MOLT-4 leukemia = system: MOLT-4 leukemia
786-0 renal = system: 786-0 renal
SF-539 CNS = system: SF-539 CNS
OVCAR-3 ovarian = system: OVCAR-3 ovarian
SNB-19 CNS = system: SNB-19 CNS
MDA-MB-231 breast = system: MDA-MB-231 breast
NCI-H23 lung = system: NCI-H23 lung
RPMI-8226 leukemia = system: RPMI-8226 leukemia
CAKI-1 renal = system: CAKI-1 renal
HOP-62 NSCLC = system: HOP-62 NSCLC
SR leukemia = system: SR leukemia
HT29 colon = system: HT29 colon
RXF 393 renal = system: RXF 393 renal
NCI/ADR-RES ovarian = system: NCI/ADR-RES ovarian
A498 renal = system: A498 renal
MCF7 breast = system: MCF7 breast
NCI-H226 lung = system: NCI-H226 lung
HS 578T breast = system: HS 578T breast
SK-OV-3 ovarian = system: SK-OV-3 ovarian
TK-10 renal = system: TK-10 renal
DU-145 prostate = system: DU-145 prostate
NCI-H522 lung = system: NCI-H522 lung
SW-620 colon = system: SW-620 colon
HCC-2998 colon = system: HCC-2998 colon

SMILES: CC(C)C[C@H](NC(=O)Cn1ccc(Nc2ccccc2)cc1=O)B(O)O
- GI50 (NCI-H460 lung): 8.41 µM
- TGI (NCI-H460 lung): 42.5 µM
- GI50 (HCT-15 colon): 8.66 µM
- TGI (HCT-15 colon): > 100 µM
- GI50 (ACHN renal): 3.04 µM
- TGI (ACHN renal): > 100 µM
- GI50 (MDA-MB-435): 593 nM
- TGI (MDA-MB-435): 2290 nM
- GI50 (SF-268 CNS): 2880 nM
- TGI (SF-268 CNS): 18.6 µM
- GI50 (M14 melanoma): 1740 nM
- TGI (M14 melanoma): 13.7 µM
- GI50 (OVCAR-5 ovarian): 6.24 µM
- TGI (OVCAR-5 ovarian): 90 µM
- GI50 (U251 CNS): 5.04 µM
- TGI (U251 CNS): > 100 µM
- GI50 (SK-MEL-5 melanoma): 620 nM
- TGI (SK-MEL-5 melanoma): 2880 nM
- GI50 (T-47D breast): 1010 nM
- TGI (T-47D breast): 3.38 µM
- GI50 (UACC-62 melanoma): 2440 nM
- TGI (UACC-62 melanoma): 18.1 µM
- GI50 (A549 NSCLC): 8.34 µM
- TGI (A549 NSCLC): > 100 µM
- GI50 (PC-3 prostate): 5.06 µM
- TGI (PC-3 prostate): 36 µM
- GI50 (UO-31 renal): 5.59 µM
- TGI (UO-31 renal): 39.6 µM
- GI50 (KM12 colon): 3.08 µM
- TGI (KM12 colon): 12.4 µM
- GI50 (LOX IMVI melanoma): 645 nM
- TGI (LOX IMVI melanoma): 2270 nM
- GI50 (SK-MEL-2 melanoma): 1810 nM
- TGI (SK-MEL-2 melanoma): 21.3 µM
- GI50 (SNB-75 CNS): 4.54 µM
- TGI (SNB-75 CNS): 25.3 µM
- GI50 (OVCAR-8 ovarian): 5.47 µM
- TGI (OVCAR-8 ovarian): > 100 µM
- GI50 (HOP-92 NSCLC): 2490 nM
- TGI (HOP-92 NSCLC): 8.23 µM
- GI50 (UACC-257 melanoma): 1300 nM
- TGI (UACC-257 melanoma): 7.68 µM
- GI50 (HCT-116 colon): 852 nM
- TGI (HCT-116 colon): 5.02 µM
- GI50 (HL-60(TB) leukemia): 3.32 µM
- TGI (HL-60(TB) leukemia): 72.6 µM
- GI50 (SF-295 CNS): 3.75 µM
- TGI (SF-295 CNS): 40.1 µM
- GI50 (OVCAR-4 ovarian): 5.68 µM
- TGI (OVCAR-4 ovarian): > 100 µM
- GI50 (MALME-3M melanoma): 2080 nM
- TGI (MALME-3M melanoma): 8.77 µM
- GI50 (SK-MEL-28 melanoma): 665 nM
- TGI (SK-MEL-28 melanoma): 4.49 µM
- GI50 (BT-549 breast): 1190 nM
- TGI (BT-549 breast): 11.7 µM
- GI50 (IGROV1 ovarian): 6.27 µM
- TGI (IGROV1 ovarian): > 100 µM
- GI50 (SN12C renal): 5.17 µM
- TGI (SN12C renal): 28 µM
- GI50 (K-562 leukemia): 3.67 µM
- TGI (K-562 leukemia): > 100 µM
- GI50 (COLO 205 colon): 8.25 µM
- TGI (COLO 205 colon): > 100 µM
- GI50 (MOLT-4 leukemia): 468 nM
- TGI (MOLT-4 leukemia): 11.7 µM
- GI50 (786-0 renal): 5.55 µM
- TGI (786-0 renal): > 100 µM
- GI50 (SF-539 CNS): 781 nM
- TGI (SF-539 CNS): 5.81 µM
- GI50 (OVCAR-3 ovarian): 512 nM
- TGI (OVCAR-3 ovarian): 2780 nM
- GI50 (SNB-19 CNS): 16.6 µM
- TGI (SNB-19 CNS): > 100 µM
- GI50 (MDA-MB-231 breast): 3.09 µM
- TGI (MDA-MB-231 breast): 15.2 µM
- GI50 (NCI-H23 lung): 3.45 µM
- TGI (NCI-H23 lung): > 100 µM
- GI50 (RPMI-8226 leukemia): 345 nM
- TGI (RPMI-8226 leukemia): 949 nM
- GI50 (CAKI-1 renal): 4.02 µM
- TGI (CAKI-1 renal): 60.4 µM
- GI50 (HOP-62 NSCLC): 6.23 µM
- TGI (HOP-62 NSCLC): 40.9 µM
- GI50 (SR leukemia): 398 nM
- TGI (SR leukemia): > 100 µM
- GI50 (HT29 colon): 1060 nM
- TGI (HT29 colon): 13.2 µM
- GI50 (RXF 393 renal): 1810 nM
- TGI (RXF 393 renal): 4.78 µM
- GI50 (NCI/ADR-RES ovarian): 65.6 µM
- TGI (NCI/ADR-RES ovarian): > 100 µM
- GI50 (A498 renal): 1070 nM
- TGI (A498 renal): 6.78 µM
- GI50 (MCF7 breast): 427 nM
- TGI (MCF7 breast): > 100 µM
- GI50 (NCI-H226 lung): 352 nM
- TGI (NCI-H226 lung): 1470 nM
- GI50 (HS 578T breast): 1860 nM
- TGI (HS 578T breast): 7.16 µM
- GI50 (SK-OV-3 ovarian): 11.5 µM
- TGI (SK-OV-3 ovarian): > 100 µM
- GI50 (TK-10 renal): 3.28 µM
- TGI (TK-10 renal): 25.3 µM
- GI50 (DU-145 prostate): 10.7 µM
- TGI (DU-145 prostate): > 100 µM
- GI50 (NCI-H522 lung): 932 nM
- TGI (NCI-H522 lung): 6.44 µM
- GI50 (SW-620 colon): 2000 nM
- TGI (SW-620 colon): 23.9 µM
- GI50 (HCC-2998 colon): 2020 nM
- TGI (HCC-2998 colon): 4.76 µM
